Source: patent US8273745B2, “Polycyclic acid compounds useful as CRTH2 antagonists and antiallergic agents” (Astellas Pharma Inc, priority 2006, dated 2012)

Legend:
human CRTH2 = target: T1, human CRTH2 (Homo sapiens, UniProt Q9Y5Y4); assay: Human CRTH2 binding assay (3H-labeled PGD2 binding, membranes of HEK293 cells transfected with human CRTH2); details: membrane preparation of HEK293 cells with human CRTH2; 2 nM 3H-labeled PGD2; 4° C., 120 minutes; read-out: IC50 (nM), in vitro human CRTH2 binding assay
T1 construct: expressed in transfected cells; host or cells: HEK293 cells, stably transfected; membrane preparation
T1 sequence (Q9Y5Y4 1-395): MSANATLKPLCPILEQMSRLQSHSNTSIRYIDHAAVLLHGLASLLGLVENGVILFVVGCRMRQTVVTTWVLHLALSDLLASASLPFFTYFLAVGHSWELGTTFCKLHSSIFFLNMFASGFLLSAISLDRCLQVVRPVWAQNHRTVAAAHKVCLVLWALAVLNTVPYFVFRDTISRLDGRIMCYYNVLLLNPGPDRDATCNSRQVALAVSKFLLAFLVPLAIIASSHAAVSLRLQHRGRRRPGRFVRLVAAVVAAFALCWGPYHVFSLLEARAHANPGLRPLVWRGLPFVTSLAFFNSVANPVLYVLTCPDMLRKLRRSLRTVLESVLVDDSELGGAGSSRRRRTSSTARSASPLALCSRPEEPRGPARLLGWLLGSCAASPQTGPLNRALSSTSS
Procedure: Human CRTH2 Binding Assay
To evaluate CRTH2 binding activities of example compounds, PGD2 binding assay was performed as modifications of former paper (Journal of pharmacology and experimental therapeutics, 2003, 306(2), pp. 463-470).
HEK293 cells stably transfected with human CRTH2 cDNA were suspended in assay buffer (10 mM BES, 1 mM EDTA, 10 mM MnCl2, pH=7.0) and broken into pieces by strong mixture using injection needle. The membrane preparation at the concentration of 50 μg protein was mixed with various concentrations of compounds. Binding reaction was initiated by an addition of ^3H-labeled PGD2 to a final concentration of 2 nM and the reaction mixture was incubated at 4° C. for 120 minutes. The reaction was terminated by filtration using GF/B plate (PerkinElmer) which was washed with wash buffer (10 mM BES, 0.01% BSA). ^3H-labeled PGD2 which binds to CRTH2 were captured on this plate and the radioactivity was measured. The total and non-specific binding were determined in the absence and presence of 10 μM DK-PGD2. The binding activity of each compound was expressed as IC50 value.

[1] = tested on: Guinea Pig antigen-induced hyper-responsiveness; assay: Guinea Pig antigen-induced hyper-responsiveness model; assay type: in vivo; details: OVA-sensitized male Hartley guinea pigs, AUC of peak inflation pressure versus methacholine dose
Procedure: Guinea Pig Antigen-Induced Hyper-Responsiveness Model
To evaluate anti asthma efficacy of the compounds, they were administered to Guinea Pig antigen-induced hyper-responsiveness model which is cited in the literature with minor modifications (Agents Actions, 1992, 37, pp. 162-164).
Male Hartley guinea pigs were actively sensitized to ovalbumin (OVA) by i.p. injection of 20 mg in 0.9% saline at day 0 and 1 mg at day 2. Animals were exposed for 10 minutes on days 14-21 to an aerosol of 0.5% OVA solution in 0.9% saline or saline alone generated from a nebulizer. All animals were treated with compound by p.o. administration 60 minutes prior to the aerosol and 1 mg/kg pyrilamine by i.p. injection 30 minutes prior to the aerosol. On day 22, animal was anesthetized with urethane (1.5 g/kg). The trachea was cannulated and the animal was mechanically ventilated (60 strokes/minute; 1 mL/100 g body weight) with a small animal respirator. Pulmonary inflation pressure (PIP) was monitored with a pressure transducer. Doses of methacholine (0-14 μg/kg) were administered sequentially (3 minutes intervals) by the right jugular vein to each animal. The area under the peak inflation pressure versus methacholine dose curve (AUC) was calculated for each animal.

Row | IC50 (human CRTH2) [nM] | Structure (SMILES) | inhibition (%) ([1]; dose 10 mg/kg p.o.) | inhibition (%) ([1]; dose 3 mg/kg p.o.) | inhibition (%) ([1]; dose 1 mg/kg p.o.)
1 | 3.6 | O=C(O)Cn1ccc2c(CCCn3cc(C(c4ccccc4)c4ccccc4)ccc3=O)cccc21 [Example 4, (4-{3-[5-(diphenylmethyl)-2-oxopyridin-1(2H)-yl]propyl}-1H-indol-1-yl)acetic acid] | – | – | –
2 | 42 | O=C(O)COc1cccc(CCCn2cc(C(c3ccccc3)c3ccccc3)ccc2=O)c1 [Example 10, (3-{3-[5-(diphenylmethyl)-2-oxopyridin-1(2H)-yl]propyl}phenoxy)acetic acid] | 100 | – | –
3 | 13 | C[C@H](Oc1cccc(CCCn2nc(C(c3ccccc3)c3ccccc3)ccc2=O)c1)C(=O)O [Example 59, (2S)-2-(3-{3-[3-(Diphenylmethyl)-6-oxopyridazin-1(6H)-yl]propyl}phenoxy)propanoic acid] | – | 93 | –
4 | 14 | O=C(O)CCCOc1cccc(CCCn2nc(C(c3ccccc3)c3ccccc3)ccc2=O)c1 [Example 69, 4-(3-{3-[3-(Diphenylmethyl)-6-oxopyridazin-1(6H)-yl]propyl}phenoxy)butanoic acid] | – | – | –
5 | 5.5 | O=C(O)COc1cccc(CCCN2C(=O)OC[C@@H]2C(c2ccccc2)c2ccccc2)c1 [Example 72, (3-{3-[(4S)-4-(Diphenylmethyl)-2-oxo-1,3-oxazolidin-3-yl]propyl}phenoxy)acetic acid] | – | – | –
6 | 8.1 | O=C(O)CCCOc1cccc(SCCn2cc(C(c3ccccc3)c3ccccc3)ccc2=O)c1 [Example 84, 4-[3-({2-[5-(Diphenylmethyl)-2-oxopyridin-1(2H)-yl]ethyl}sulfanyl)phenoxy]butanoic acid] | – | 100 | –
7 | 4.8 | NS(=O)(=O)c1cccc(C(=O)N(CCCc2cccc(OCC(=O)O)c2)CCC(c2ccccc2)c2ccccc2)c1 [Example 99, [3-(3-{[3-(Aminosulfonyl)benzoyl](3,3-diphenylpropyl)amino}propyl)phenoxy]acetic acid] | – | – | –
8 | 18 | O=C(O)CCCOc1cccc(CCCn2nc(C(c3ccc(F)cc3)c3ccc(F)cc3)ccc2=O)c1 [Example 111, 4-[3-(3-{3-[Bis(4-fluorophenyl)methyl]-6-oxopyridazin-1(6H)-yl}propyl)phenoxy]butanoic acid] | – | 89 | –
9 | 24 | O=C(O)CCCOc1cccc(CCCn2cc(C(c3ccc(F)cc3)c3ccc(F)cc3)ccc2=O)c1 [Example 112, 4-[3-(3-{5-[Bis(4-fluorophenyl)methyl]-2-oxopyridin-1(2H)-yl}propyl)phenoxy]butanoic acid] | – | – | 60
10 | 7.6 | O=C(O)COc1cccc(CCCn2cc(-c3ccccc3-c3cccc4ccccc34)ccc2=O)c1 [Example 123, [3-(3-{5-[2-(1-Naphthyl)phenyl]-2-oxopyridin-1(2H)-yl}propyl)phenoxy]acetic acid] | – | – | –
